Where “and” joins values, the source holds several entries; their conditions need not be identical. Equal values may be shown once.
How the values were obtained:
MPO = experiment: Bleomycin-induced pulmonary fibrosis: lung myeloperoxidase (MPO) assay; type: in vivo, mice; details: 50 mg/kg (high-dose groups); vs BLM group p<0.001
Experimental: (§1) Mice were divided into fifth groups with 5 animals per group according to body weight: control group, BLM group, BLM+DEX group (7.5 mg/kg), BLM+ACH dosage group (50 mg/kg), and BLM+ACM dosage group (25 mg/kg), BLM+ACH dosage group (50 mg/kg), and BLM+ACM dosage group (25 mg/kg) BLM+AH dosage group (50 mg/kg), and BLM+AM dosage group (25 mg/kg) BLM+BH dosage group (50 mg/kg), and BLM+BM dosage group (25 mg/kg) BLM+CH dosage group (50 mg/kg), and BLM+CM dosage group (25 mg/kg) BLM+DH dosage group (50 mg/kg), and BLM+DM dosage group (25 mg/kg) BLM+EH dosage group (50 mg/kg), and BLM+EM dosage group (25 mg/kg) BLM. Pulmonary fibrosis (PF) was established in mice via a single intratracheal administration of BLM at 7.5 mg/kg mg/kg body weight. Different doses of samples were intragastrically administered daily for 21 days after BLM injury, and DEX was used as the positive control. Control and model groups received an equal volume of vehicle (0.9% NaCl) using the same schedule and route of administration.
(§2) 1. Group I: control; 2. Group II: mice received single intraperitoneal injection of BLM (7.5 mg/kg BW) 3. Group III: single dose (ACH, 0.5 g/kg) 4. Group IV: Single dose (ACM, 1.0 g/kg) 5. […] Group VII: purified AR101-DS2 (50 mg/kg) 8. Group VIII: purified AR101-DS2 (25 mg/kg) 7. Group VII: purified AR101-DS4 (50 mg/kg) 8. Group VIII: purified AR101-DS4 (25 mg/kg) 7. […] Group VII: purified ARH013-RA1 (50 mg/kg) 8. Group VIII: purified ARH013-RA1 (25 mg/kg)
The lung tissues were homogenized and the MPO levels were detected with the kits according to manufacturer's instruction.

[1] = test system: bleomycin-induced pulmonary fibrosis; experiment: Bleomycin-induced pulmonary fibrosis: lung histopathology (H&E, Masson's trichrome); type: in vivo, mice; details: 50 mg/kg (high-dose groups)
Experimental: as §1
1. Group I: control; 2. Group II: mice received single intraperitoneal injection of BLM (7.5 mg/kg BW) 3. Group III: single dose (ACH, 0.5 g/kg) 4. Group IV: Single dose (ACM, 1.0 g/kg) 5. […] Group VII: purified AR101-DS2 (50 mg/kg) 8. Group VIII: purified AR101-DS2 (25 mg/kg) 7. Group VII: purified AR101-DS4 (50 mg/kg) 8. Group VIII: purified AR101-DS4 (25 mg/kg) 7. […]

[2] = test system: TNF-α, IL-1β, IL-6 and TGF-β; experiment: Bleomycin-induced pulmonary fibrosis: pro-inflammatory cytokines (ELISA); type: in vivo, mice; details: 50 mg/kg (high-dose groups); serum (FIG. 35 legend: BALF); p<0.001
Experimental: as §1
1. Group I: control; 2. […]
The serum concentration of the pro-inflammatory cytokines (i.e. tumor necrosis factor-α (TNF-α), interleukin-6 (IL-6), and IL-1β) in serum were assessed with relevant enzyme-linked immunosorbent assay (ELISA) kits (Biosource International Inc., Sunnyvale, Calif., USA), based on the manufacturer's instructions. […]

[3] = test system: bleomycin-induced pulmonary fibrosis; experiment: Bleomycin-induced pulmonary fibrosis: hydroxyproline content in lung tissue; type: in vivo, mice; details: 50 mg/kg (high-dose groups); p<0.001
Experimental: as §1, §2

[4] = test system: atherosclerosis and liver fibrosis in hypercholesterolemic rabbit; experiment: Hypercholesterolemic rabbit model (0.5% cholesterol chow), liver histology scores; type: in vivo; details: 10 mg/kg in 0.5% cholesterol chow; individual liver slides, 12-week study
Experimental: 2 to 3 kg male, New Zealand White rabbits are individually caged and housed in temperature and humidity-controlled rooms. Light-dark cycles are 12 h each. After several days of acclimation, the animals are sequentially assigned to six feeding groups: standard rabbit chow, standard rabbit chow containing 0.5% cholesterol, standard rabbit chow containing both 0.5% cholesterol and 10 mg/kg Lovastatin, standard rabbit chow containing both 0.5% cholesterol and 1% ARH003, standard rabbit chow containing both 0.5% cholesterol and 1% ARH004, standard rabbit chow containing both 0.5% cholesterol and 10 mg/kg AR101-DS2. Except standard rabbit chow, others groups are given standard rabbit chow containing 0.5% cholesterol for 4 weeks (see FIGS. 14-15). The daily feeding amount for each rabbit is 50 g/kg body weight per day. Diets are administered for 8 weeks, after the animals had adjusted to their new environment. At the beginning and end of the 12 weeks study, the rabbits are anesthetized by an intramuscular injection of Zoletil 50 (1 mL/kg) (Virbac Ltd., France), and blood samples are harvested. Finally, the aortas (from aortic arch to the bifurcation of the iliac arteries) and whole livers are collected from the rabbits after they are sacrificed for further histopathological analyses.
(ND) standard rabbit chow, n=5; (HF) standard rabbit chow containing 0.5% cholesterol, n=6; (L) standard rabbit chow containing both 0.5% cholesterol and 10 mg/kg Lovastatin, n=4; (AR003) standard rabbit chow containing both 0.5% cholesterol and 1% ARH003, n=5; (AR004) standard rabbit chow containing both 0.5% cholesterol and 1% ARH004, n=5; (AR101-DS2) standard rabbit chow containing both 0.5% cholesterol and 10 mg/kg AR101-DS2, n=5; The daily feeding amount for each rabbit is 50 g/kg body weight per day.
The rabbit liver tissues (shown in FIG. 29) are perfused with normal saline and fixed in 10% (v/v) formalin-neutralized solution (J.T. Baker, Inc., USA) for 24 hr. […] Briefly, the slices are washed with pure water for 1 min to remove the OCT compound, washed with 50% (v/v) ethanol for 30 sec, and then stained with 2% (w/v) Sudan IV for 1 hr. After further washing with 50% (v/v) ethanol and pure water for 2 min, the slices are counterstained with hematoxylin. Photographs shown in FIG. 30 are acquired using a microscope equipped with a 10-fold magnification objective and quantified on an Alpha Imager 2200 documentation system (Alpha Innotech, USA). […]

[5] = test system: bleomycin-induced pulmonary fibrosis; experiment: Bleomycin-induced pulmonary fibrosis in mice: body weight, lung weight, lung index; type: in vivo; details: for Pulmonary index: lung weight/body weight×100
Experimental: Specific pathogen-free ICR mice (males) (body weights 18-22 g) were purchased from the BioLASCO Taiwan Co., Ltd. (Taipei, Taiwan). The animals were housed in Plexiglas cages at a constant temperature of 22±1° C. and a relative humidity of 55±5% on a 12 h dark-light cycle for at least 2 weeks before the experiment. Animals were provided food and water ad libitum. All experimental procedures were performed according to the guidelines of the Institutional Animal Ethics Committee, and the protocol was approved by the Committee for the Purpose of Control and Supervision of Experiments on Animals.
as §1
Mouse body weights were recorded daily. Mice were sacrificed on the 21th day using excess chloral hydrate hydrochloride anesthesia. Blood was obtained for ELISA analyses, and whole lungs were removed and weighed. The right lungs were fixed in 10% formalin, dehydrated, and embedded in paraffin. The left lungs were used to determine hydroxyproline. The pulmonary coefficient was calculated using the following equation: lung weight/body weight×100% […]
At the end point of the entire experiment, the animal's body weight and lung weight were recorded.

[6] = 25 mg/kg intragastric daily for 21 days after BLM
[7] = 50 mg/kg intragastric daily for 21 days after BLM
[8] = DEX 7.5 mg/kg daily for 21 days after BLM

Compound	lung MPO activities (MPO)	necrosis and inflammatory infiltrating cells in the lung tissue [1]	TNF-α, IL-1β, IL-6 and TGF-β production after BLM challenge [2]	hydroxyproline (HP) content in lung tissue [3]	Score of Inflammation [4]	Score of Steatosis Grade [4]	also measured
C=C1C(=O)O[C@@H]2/C=C(\C)C[C@H]3C=C(CC/C=C(\C)CC[C@@H]12)C(=O)O3 [AR100-DS1, Ovatodiolide]	evidently suppressed	significantly improved	improved	reduced	–	–	–
Dehydrosulphurenic acid/Sulphurenic acid [AR101-DS2]	evidently suppressed	significantly improved	improved	reduced	1 (1′: mild, 2 foci per 200 field) (2×) and 2 (2′: moderate, 2-4 foci per 200 field)	3 (3′: >66%) (2×) and 1 (1′: 5-33 %)	Pulmonary index ([5]; 50 mg/kg intragastric daily for 21 days after BLM, listed as BH): significant decrease
C=C(CC[C@@H](C)[C@H]1CC[C@H]2C3=C(C(=O)C[C@]12C)[C@@]1(C)CC[C@@H](O)[C@](C)(O)[C@@H]1C[C@@H]3O)[C@@H](C)C(=O)O (racemic) [AR101-DS1, RS-Antcin K]	evidently suppressed	–	–	reduced	–	–	Final body mass [5, 6]: 36.45 ± 0.28 g; Pulmonary mass [5, 6]: 0.52 ± 0.01 g; Final body mass [5, 7]: 39.02 ± 0.37 g; Pulmonary mass [5, 7]: 0.46 ± 0.01 g
C[C@@H]1C[C@H]2[C@@H]3CCC4=CC(=O)C=C[C@]4(C)[C@@]3(F)[C@@H](O)C[C@]2(C)[C@@]1(O)C(=O)CO [DEX, Dexamethasone, reference compound]	–	–	–	–	–	–	Final body mass [5, 8]: 38.50 ± 0.22 g; Pulmonary mass [5, 8]: 0.42 ± 0.01 g; Pulmonary index [5, 8]: 1.09 ± 0.02
CC[C@H](C)C(=O)O[C@H]1C[C@@H](C)C=C2C=C[C@H](C)[C@H](CC[C@@H]3C[C@@H](O)CC(=O)O3)[C@H]21 [L, Lovastatin, reference compound]	–	–	–	–	1 (1′: mild, 2 foci per 200 field) and 2 (2′: moderate, 2-4 foci per 200 field)	2 (2′: 33-66%) (2×) and 0 (0′: low- to medium-power evaluation of parenchymal involvement <5%)	–

Reference: US20230041859A1, “USE OF TERPENOIDS IN THE TREATMENT OR PREVENTION OF FIBROTIC DISEASES” (Arjil Biotech Holding Company Limited, priority 2021, published 2023)
